Data taken from US20020026053A1, “Novel 3-(substituted) -2- indolinones compounds and use thereof as inhibitors of protein kinase activity” (priority 1997, published 2002).

target: T1, Met receptor (EGFR/Met chimeric cells, EMR) (Homo sapiens, UniProt P08581); assay: Met Autophosphorylation Assay; format: biochemical
T1 construct: expressed in transfected cells; the other entry of the earlier key: EGFR (P00533, Epidermal growth factor receptor)
Description: Met Autophosphorylation Assay
This assay determines Met tyrosine kinase activity by analyzing Met protein tyrosine kinase levels on the Met receptor.
a. HNTG (5× stock solution): Dissolve 23.83 g HEPES and 43.83 g NaCl in about 350 ml dH2O. Adjust pH to 7.2 with HCl or NaOH, add 500 ml glycerol and 10 ml Triton X-100, mix, add dH2O to 1 L total volume. To make 1 L of 1× working solution add 200 ml 5× stock solution to 800 ml dH2O, check and adjust pH as necessary, store at 4° C.
b. PBS (Dulbecco's Phosphate-Buffered Saline), Gibco Cat. # 450-1300EB (1× solution).
c. Blocking Buffer: in 500 ml dH2O place 100 g BSA, 12.1 g Tris-pH7.5, 58.44 g NaCl and 10 ml Tween-20, dilute to 1 L total volume.
d. Kinase Buffer: To 500 ml dH2O add 12.1 g TRIS (pH 7.2), 58.4 g NaCl, 40.7 g MgCl2 and 1.9 g EGTA; bring to 1 L total volume with dH2O.
e. PMSF (Phenylmethylsulfonyl fluoride), Sigma Cat. # P-7626, to 435.5 mg, add 100% ethanol to 25 ml total volume, vortex.
f. ATP (Bacterial Source), Sigma Cat. # A-7699, store powder at −20° C.; to make up solution for use, dissolve 3.31 mg in 1 ml dH2O.
g. RC-20H HRPO Conjugated Anti-Phosphotyrosine, Transduction Laboratories Cat. # E120H.
h. Pierce 1-Step Turbo™ B-ELISA (3,3′,5,5′-tetramethylbenzidine, Pierce Cat. # 34022.
i. H2SO4, add 1 ml conc.(18 N) to 35 ml dH2O.
j. TRIS HCL, Fischer Cat. # BP152-5; to 121.14 g of material, add 600 ml MilliQ H2O, adjust pH to 7.5 (or 7.2) with HCl, bring volume to 1 L with MilliQ H2O.
k. NaCl, Fischer Cat. # S271-10, make up 5M solution.
m. Na3VO4, Fischer Cat. # S454-50, to 1.8 g material add 80 ml MilliQ H2O, adjust pH to 10.0 with HCl or NaOH, boil in microwave, cool, check pH, repeat procedure until pH stable at 10.0, add MilliQ H2O to 100 ml total volume, make 1 ml aliquots and store at −80° C.
n. MgCl2, Fischer Cat. # M33-500, make up 1M solution.
o. HEPES, Fischer Cat. # BP310-500, to 200 ml MilliQ H2O, add 59.6 g material, adjust pH to 7.5, bring volume to 250 ml total, sterile filter.
p. Albumin, Bovine (BSA), Sigma Cat. # A-4503, to 30 grams material add sterile distilled water to make total volume of 300 ml, store at 4° C.
q. TBST Buffer: to approx. 900 ml dH2O in a 1 L graduated cylinder add 6.057 g TRIS and 8.766 g NaCl, when dissolved, adjust pH to 7.2 with HCl, add 1.0 ml Triton X-100 and bring to 1 L total volume with dH2O.
r. Goat Affinity purified antibody Rabbit IgG (whole molecule), Cappel Cat. # 55641.
s. Anti h-Met (C-28) rabbit polyclonal IgG antibody, Santa Cruz Chemical Cat. # SC-161.
t. Transiently Transfected EGFR/Met chimeric cells (EMR) (Komada, et al., Oncogene, 8:2381-2390 (1993).
u. Sodium Carbonate Buffer, ([…], Fischer Cat. # S495) to 10.6 g material add 800 ml MilliQ H2O, when dissolved adjust pH to 9.6 with NaOH, bring up to 1 L total volume with MilliQ H2O, filter, store at 4° C.
All of the following steps are conducted at room temperature unless it is specifically indicated otherwise. All ELISA plate washing is by rinsing 4× with TBST.
This procedure can be performed the night before or immediately prior to the start of receptor capture.
1. Quick thaw lysates in a 37° C. waterbath with a swirling motion until the last crystals disappear.
2. Lyse cell pellet with 1× HNTG containing 1 mM PMSF. Use 3 ml of HNTG per 15 cm dish of cells. Add ½ the calculated HNTG volume, vortex the tube for 1 min., add the remaining amount of HNTG, vortex for another min.
3. Balance tubes, centrifuge at 10,000× g for 10 min at 4° C.
4. Pool supernatants, remove an aliquot for protein determination.
5. Quick freeze pooled sample in dry ice/ethanol bath. This step is performed regardless of whether lysate will be stored overnight or used immediately following protein determination.
6. Perform protein determination using standard bicinchoninic acid (BCA) method (BCA Assay Reagent Kit from Pierce Chemical Cat. # 23225).
1. Coat Corning 96 well ELISA plates with 5 μg per well Goat anti-Rabbit antibody in Carbonate Buffer for a total well volume of 50 μl. Store overnight at 4° C. […]

T1 sequence (P08581 with tags, fused parts or gaps): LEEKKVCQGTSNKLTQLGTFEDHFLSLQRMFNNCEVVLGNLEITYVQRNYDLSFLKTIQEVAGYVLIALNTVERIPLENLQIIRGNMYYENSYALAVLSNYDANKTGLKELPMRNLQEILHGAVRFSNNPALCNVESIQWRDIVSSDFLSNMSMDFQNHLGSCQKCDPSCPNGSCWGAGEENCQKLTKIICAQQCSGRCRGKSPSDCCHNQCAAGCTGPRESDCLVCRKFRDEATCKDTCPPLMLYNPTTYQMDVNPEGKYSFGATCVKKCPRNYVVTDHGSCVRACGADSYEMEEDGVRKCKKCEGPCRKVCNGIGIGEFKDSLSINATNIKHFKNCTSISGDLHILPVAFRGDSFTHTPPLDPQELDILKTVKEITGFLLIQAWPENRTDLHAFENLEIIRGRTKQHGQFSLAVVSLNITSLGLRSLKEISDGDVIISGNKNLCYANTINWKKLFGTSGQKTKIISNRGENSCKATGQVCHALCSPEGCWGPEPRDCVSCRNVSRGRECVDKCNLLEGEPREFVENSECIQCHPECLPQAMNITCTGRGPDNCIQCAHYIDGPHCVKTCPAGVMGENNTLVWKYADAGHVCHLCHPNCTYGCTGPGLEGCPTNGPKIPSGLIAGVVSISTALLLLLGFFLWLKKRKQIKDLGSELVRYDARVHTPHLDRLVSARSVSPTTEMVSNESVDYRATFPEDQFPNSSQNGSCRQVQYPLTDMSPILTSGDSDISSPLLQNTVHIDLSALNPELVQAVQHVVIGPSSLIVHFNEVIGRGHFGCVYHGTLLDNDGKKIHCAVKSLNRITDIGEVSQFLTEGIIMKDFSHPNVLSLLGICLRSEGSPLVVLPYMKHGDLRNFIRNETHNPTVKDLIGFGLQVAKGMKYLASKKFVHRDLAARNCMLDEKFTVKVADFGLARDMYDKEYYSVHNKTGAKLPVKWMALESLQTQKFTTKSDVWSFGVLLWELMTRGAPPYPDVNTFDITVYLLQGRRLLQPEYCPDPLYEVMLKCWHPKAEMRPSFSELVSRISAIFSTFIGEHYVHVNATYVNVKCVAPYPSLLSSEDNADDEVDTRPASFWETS

| Structure (SMILES) | Met Kinase % Inhibition (P.130) |
| --- | --- |
| COc1ccc(C=C2C(=O)Nc3c(Br)cc(Br)c(C)c32)cc1C(C)(C)C [10732/H05] | 13.3% |
| CCc1cc(CC)c(C=C2C(=O)Nc3c(Br)cc(Br)c(C)c32)[nH]1 [10727/H03] | 49.2% |
| Cc1c(Br)cc(Br)c2c1C(=Cc1cccc(C#N)c1)C(=O)N2 [10727/H08] | 12.3% |
| Cc1c(Br)cc(Br)c2c1C(=Cc1ccc(OCc3ccccc3)c(C(C)(C)C)c1)C(=O)N2 [10732/H06] | 31.1% |
| Cc1c(Br)cc(Br)c2c1C(=Cc1ccc(Br)cc1)C(=O)N2 [10717/H08] | 23.0% |
| Cc1c(Br)cc(Br)c2c1C(=Cc1ccc[nH]1)C(=O)N2 [10717/H09] | 8.8% |
| Cc1c(Br)cc(Br)c2c1C(=C1C(=O)N(C)c3ccccc31)C(=O)N2 [10731/H10] | 28.4% |
| Cc1c(Br)cc(Br)c2c1C(=Cc1cccnc1)C(=O)N2 [10729/H08] | 44.0% |
| COc1c(Br)cc(C=C2C(=O)Nc3c(Br)cc(Br)c(C)c32)cc1C(C)(C)C [10732/H07] | 26.7% |
| Cc1cc(C=C2C(=O)Nc3c(Br)cc(Br)c(C)c32)cc(C)c1OCc1ccccc1 [10733/H07] | −1.3% |
| Cc1cn(C)cc1C=C1C(=O)Nc2c(Br)cc(Br)c(C)c21 [10726/H06] | 35.1% |
| Cc1c(Br)cc(Br)c2c1C(=CC(c1cccs1)C(F)(F)F)C(=O)N2 (centres unmarked) [10732/H02] | 56.8% |
| Cc1c(Br)cc(Br)c2c1C(=Cc1ccc(-c3ccccc3Cl)o1)C(=O)N2 [10730/H07] | 38.7% |
| Cc1cc2occ(C=C3C(=O)Nc4c(Br)cc(Br)c(C)c43)c(=O)c2cc1C [10731/H03] | 23.3% |
| COc1c(C(C)C)cc(C=C2C(=O)Nc3c(Br)cc(Br)c(C)c32)cc1C(C)C [10732/H03] | 24.1% |
| Cc1c(Br)cc(Br)c2c1C(=Cc1coc3ccc(C(C)C)cc3c1=O)C(=O)N2 [10731/H05] | 32.2% |
| Cc1[nH]c(C=C2C(=O)Nc3c(Br)cc(Br)c(C)c32)c(Br)c1Br [10717/H11] | 58.2% |
| Cc1c(Br)cc(Br)c2c1C(=Cc1coc3ccccc3c1=O)C(=O)N2 [10727/H07] | 26.8% |
| Cc1c(Br)cc(Br)c2c1C(=Cc1cccc(C(F)(F)F)c1F)C(=O)N2 [10728/H07] | 45.8% |
| COc1ccc2ccccc2c1C=C1C(=O)Nc2c(Br)cc(Br)c(C)c21 [10729/H02] | 25.5% |
| CSc1ccc(C=C2C(=O)Nc3c(Br)cc(Br)c(C)c32)cc1 [10729/H04] | 25.1% |
| CC(=O)n1cc(C=C2C(=O)Nc3c(Br)cc(Br)c(C)c32)c2ccccc21 [10730/H05] | 30.7% |
| Cc1c(Br)cc(Br)c2c1C(=Cc1ccncc1)C(=O)N2 [10729/H09] | 45.1% |
| COc1cccc(O)c1C=C1C(=O)Nc2c(Br)cc(Br)c(C)c21 [10717/H10] | 52.3% |
| Cc1c(Br)cc(Br)c2c1C(=Cc1cc([N+](=O)[O-])ccc1O)C(=O)N2 [10733/H10] | 26.5% |
| Cc1ccsc1C=C1C(=O)Nc2c(Br)cc(Br)c(C)c21 [10729/H05] | 27.9% |
| Cc1c(Br)cc(Br)c2c1C(=Cc1cc(C(C)C)c(Oc3ccccc3)c(C(C)C)c1)C(=O)N2 [10732/H04] | 57.6% |
| Cc1c(Br)cc(Br)c2c1C(=Cc1cc(Cl)c(OCc3ccccc3)c(C(C)(C)C)c1)C(=O)N2 [10732/H10] | 28.0% |
| Cc1c(Br)cc(Br)c2c1C(=Cc1ccc(C#N)cc1)C(=O)N2 [10727/H09] | 31.1% |
